This note sets out measurements from ChEMBL document CHEMBL1139483, “Inhibitors of tripeptidyl peptidase II. 3. Derivation of butabindide by successive structure optimizations leading to a potential general approach to designing exopeptidase inhibitors” (J Med Chem, 2005).

In this test the target is Tripeptidyl-peptidase 2 (Rattus norvegicus, UniProt Q64560). The test can be described thus: Inhibition of TPPII in rat cerebral membrane. The test is classed as cell membranes.

Molecules are shown by their SMILES. Where a SMILES comes first, the peptide text is derived from it. [ ]: non-standard residue; d: D form. The star is where a group is joined. Pip = O=C(O)[C@@H]1CCCCN1; Nle = CCCC[C@H](N)C(=O)O; βNA = c1ccc2cc(N*)ccc2c1; Aze = O=C(O)[C@@H]1CCN1; Nva = CCC[C@H](N)C(=O)O; Abu = CC[C@H](N)C(=O)O; Aib = CC(C)(N)C(=O)O; NHBn = c1ccc(CN*)cc1; NHBu = CCCCN*

Tripeptidyl-peptidase 2, sequence (Q64560 whole entry): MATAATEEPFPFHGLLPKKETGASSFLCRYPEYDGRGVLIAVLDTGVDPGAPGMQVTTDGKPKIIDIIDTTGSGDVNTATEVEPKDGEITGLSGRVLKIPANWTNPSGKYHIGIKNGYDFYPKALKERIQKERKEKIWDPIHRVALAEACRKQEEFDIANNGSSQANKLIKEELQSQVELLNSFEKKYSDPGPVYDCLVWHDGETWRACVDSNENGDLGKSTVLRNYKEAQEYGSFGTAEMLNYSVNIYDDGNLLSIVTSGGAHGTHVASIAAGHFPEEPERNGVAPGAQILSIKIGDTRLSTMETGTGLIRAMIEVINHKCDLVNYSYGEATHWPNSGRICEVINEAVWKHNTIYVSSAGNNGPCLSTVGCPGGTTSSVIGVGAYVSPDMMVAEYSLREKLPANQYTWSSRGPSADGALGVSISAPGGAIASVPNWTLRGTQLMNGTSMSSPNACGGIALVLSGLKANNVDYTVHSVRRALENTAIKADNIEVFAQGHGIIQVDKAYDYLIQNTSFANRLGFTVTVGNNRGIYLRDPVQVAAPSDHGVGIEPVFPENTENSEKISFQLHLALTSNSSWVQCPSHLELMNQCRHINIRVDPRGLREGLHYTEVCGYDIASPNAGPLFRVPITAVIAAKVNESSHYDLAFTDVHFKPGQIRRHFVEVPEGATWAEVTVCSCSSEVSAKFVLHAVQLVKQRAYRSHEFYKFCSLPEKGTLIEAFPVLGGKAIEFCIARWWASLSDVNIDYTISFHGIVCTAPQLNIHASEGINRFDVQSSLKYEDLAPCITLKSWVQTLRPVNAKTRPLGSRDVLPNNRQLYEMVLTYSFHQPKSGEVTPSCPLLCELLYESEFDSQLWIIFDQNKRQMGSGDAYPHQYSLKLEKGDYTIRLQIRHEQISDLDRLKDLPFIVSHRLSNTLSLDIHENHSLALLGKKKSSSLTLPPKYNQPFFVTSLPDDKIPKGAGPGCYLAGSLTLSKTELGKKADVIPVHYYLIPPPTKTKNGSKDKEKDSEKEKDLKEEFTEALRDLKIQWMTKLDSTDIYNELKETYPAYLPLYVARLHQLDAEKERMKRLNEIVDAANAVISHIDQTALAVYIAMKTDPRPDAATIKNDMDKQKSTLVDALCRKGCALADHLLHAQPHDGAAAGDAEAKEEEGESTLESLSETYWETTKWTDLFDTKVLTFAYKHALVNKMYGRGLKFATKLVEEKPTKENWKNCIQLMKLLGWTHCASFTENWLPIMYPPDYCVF

Regarding `CC[C@H](N)C(=O)N1CCC[C@H](C(N)=O)C1`, the Ki is 40 µM.
For `CC(C)[C@H](N)C(=O)N1CCC[C@H]1C(=O)Nc1ccc2ccccc2c1` (H-Val-Pro-βNA) the value was 860 µM; for `NC(=O)[C@@H]1CCCN1C(=O)[C@@H](N)Cc1ccccc1` (H-Phe-Pro-NH2), 71 µM.
`CC[C@H](N)C(=O)N1CSC[C@@H]1C(N)=O` showed a Ki of 40 µM.
As for `CCCCNC(=O)[C@@H]1CCCCN1C(=O)[C@@H](N)CC` (H-[Abu]-[Pip]-NHBu), the inhibition constant Ki was determined as 35 µM.
For `C[C@H](N)C(=O)N1CCC[C@H]1C(N)=O` (H-Ala-Pro-NH2) the value was 2.1 µM.
In the case of `CC(C)[C@H](N)C(=O)N1CCC[C@H]1C(N)=O` (H-Val-Pro-NH2) it was 6 µM; in that of `CC[C@H](N)C(=O)N1CCC[C@H]1C(N)=O` (H-[Abu]-Pro-NH2), 0.57 µM.
In the case of `CCC[C@H](N)C(=O)N1CCC[C@H]1C(N)=O` (H-[Nva]-Pro-NH2) it was 1.6 µM.
Take `CC[C@@H](C)NC(=O)[C@@H]1CCCN1C(=O)[C@@H](N)CC`: the Ki is 4.5 µM. Against the preceding molecule, the Ki is about 2.8-fold higher.
Regarding `CCCC[C@H](N)C(=O)N1CCC[C@H]1C(N)=O` (H-[Nle]-Pro-NH2), the affinity, expressed as Ki, was 2 µM. Compared with the last molecule, the Ki is about 2.2-fold lower.
In the case of `CCCCNC(=O)[C@@H]1CCCN1C(=O)C(C)(C)N` (H-[Aib]-Pro-NHBu) it was 5 µM.
In the case of `CCCCNC(=O)C1CCCCCN1C(=O)[C@@H](N)CC` (stereo partly drawn) it was 6 µM; in that of `CC(C)C[C@H](N)C(=O)N1CCC[C@H]1C(N)=O` (H-Leu-Pro-NH2), 2.1 µM; in that of `CC[C@H](C)[C@H](N)C(=O)N1CCC[C@H]1C(N)=O` (H-Ile-Pro-NH2), 4.3 µM.
For `CC(C)[C@H](N)C(=O)N1CCC[C@H]1C(=O)NCc1ccccc1` (H-Val-Pro-NHBn) the value was 3.3 µM.
Regarding `CC[C@H](C)NC(=O)[C@@H]1CCCN1C(=O)[C@@H](N)CC`, the affinity corresponds to a Ki of 20 µM.
On to `CC[C@H](N)C(=O)N1CC[C@H]1C(N)=O` (H-[Abu]-[Aze]-NH2), for which the affinity corresponds to a Ki of 20 µM.
In the case of `CCCCNC(=O)[C@@H]1CC(Cc2ccccc2)CN1C(=O)[C@@H](N)CC` (stereo partly drawn) it was 0.14 µM; in that of `CCCCNC(=O)[C@@H]1CCCN1C(=O)[C@@H](N)CC` (H-[Abu]-Pro-NHBu), 0.08 µM.
The molecule `CC[C@H](N)C(=O)N1CCCC[C@@H]1C(N)=O` came in with a Ki of 12 µM.
In the case of `CC(C)[C@H](N)C(=O)N1CCC[C@H]1C(=O)NN1CCCCC1` it was 57 µM; in that of `CCCCNC(=O)[C@H]1CCCN1C(=O)[C@@H](N)C(C)C`, 190 µM.
